Experimental data: patent US20030207843A1, “Treatment of drug-resistant human immunodeficiency virus infection” (priority 1999, published 2003)
Read-outs that look alike come from different tables or passages of the source.

How the values were obtained:
Format in all cases: cell-based
[1] = test system: HIV-1LAI 4XAZT/W88G; assay: p24 reduction assay in MT-2 cells, 4XAZT/W88G
Protocol: (§1) Cells. MT-2 cells (AIDS Research and Reference Reagent Program, National Institute of Allergy and Infectious Diseases, National Institutes of Health) were maintained in RPMI 1640 supplemented with 10% fetal bovine serum (FBS; JRH Biosciences, Lenexa, Kans.), 10 mM HEPES buffer, 50 IU/ml penicillin and 50 μg/ml streptomycin.
(§2) Antiviral Susceptibility Assays. The antiviral activity of each compound was determined by inoculating MT-2 cells with HIV-1LAI at a multiplicity of infection (MOI) of 0.01 TCID50/cell, followed by incubation in the presence of three-fold serial drug dilutions (3 wells per dilution) (see Mellors, et. al., Antimicrob. Agents Chemother. 39:1087-1092). Five or seven days after infection, culture supernatants were harvested, lysed with 0.5% triton-X 100 and assayed for p24 antigen concentration using a commercial ELISA assay (DuPont, NEN Products, Wilmington, Del.). The antiviral activity of the compounds is expressed as the IC50, which is the concentration required to inhibit 50% of p24 antigen production. The fold-resistance of a test virus is calculated by dividing the IC50 of the test virus by the IC50 of the HIV-1LAI control virus.
(§3) Generation of Mutant Recombinant HIV-1. HIV-1 containing the desired mutations were generated by oligonucleotide directed mutagenesis (Altered Sites II, Promega) as previously described (Mellors, et. al., Molecular Pharm. 41:446-451). After mutagenesis, mutant RT was subcloned into the pxxHIV-1LAI cloning vector using the silent XmaI and XbaI restriction sites located at the 5′ and 3′ ends of RT. Clones were DNA sequenced to verify the presence of the desired mutation(s) and electroporated into MT-2 cells as described above to generate infectious mutant recombinant HIV-1.
(§4) Mutant RT was generated via oligonucleotide-directed mutagenesis and ligated into the pXXHIV-1LAI cloning vector. Cloning was facilitated by the presence of two silent restriction sites at the 5′ and 3′ ends (Xma1 and Xba1, respectively) of pXXHIV-1LAI RT. Infectious mutant recombinant HIV-1 was generated by electroporating MT-2 cells with mutated pXXHIV-1LAI clones. The presence of the desired mutations was verified by DNA sequencing.
(§5) Invention compounds were also evaluated against a panel of HIV-1LAI derived recombinants resistant to PFA and the PFA invention compounds, as shown in Table 7.
Recombinant viruses containing the mutations selected by invention compounds were also evaluated for their susceptibility to AZT, as shown in Table 8.

[2] = test system: HIV-1LAI M184V; assay: p24 reduction assay in MT-2 cells, M184V; settings: for EC50: M184V; for Fold-resistance: M184V relative to wild type virus
Protocol: as §1, §2, §3, §4
The multi-drug resistant HIV-1 strains, 11163p1 and 11588p1, are human clinical isolates having the RT mutations indicated. HIV-1 strains treated with the lipid analogs of the present invention include wild type, e.g., xxLAI, and the like, single mutation, e.g., xxLAI MI 84V (resistant to 3TC), xxLAI L74V (resistant to ddI and ddC), xxLAI K65R (resistant to ddI, ddC, DAPD, DXG, tenofovir, and adefovir), xxLAI T215Y (resistant to AZT), and the like, double mutations, e.g., xxLAI M41 L/T215Y (resistant to AZT), xxLAI MI 84V/T215Y (resistant to 3TC and AZT), and the like, and multiple mutations, e.g., xxLAI 4XAZT ((D67N, K70R, T215Y, K219Q) resistant to AZT)), xxLAI 4XAZT/M184V ((D67N, K70R, M 184V, T215Y, K219Q) resistant to AZT and 3TC), xxLAI M5456-12 (AZT+NNRTI resistant: D67N, K70R, K103N, T215Y), xxLAI G2-3g (AZT/3TC co-resistant: M41L, D67N, M184V, H208Y, L210W, R211K, L214F, T215Y, 1293V, E297A), 11163 (multinucleoside resistant virsus: M41L, A62V, V751, F77L, K103N, F116Y, Q151M, Y181C, M184V), 11588 (multinucleoside resistant virsus: A62V, K65R, K70R, V751, F77L, F116Y, Q151M, M184V, K219Q), and the like.

[3] = test system: multidrug-resistant HIV-1 clinical isolate 11163p1; assay: p24 reduction assay in MT-2 cells, 11163p1
Protocol: as §1
as §2, with “[…],” for “was determined by inoculating MT-2 cells with HIV-1LAI at a multiplicity of infection (MOI) of 0.01 TCID50/cell,”
The multi-drug resistant HIV-1 strains, 11163p1 and 11588p1, are human clinical isolates having the RT mutations indicated. […]

[4] = test system: HIV-1LAI W88S; assay: p24 reduction assay in MT-2 cells, W88S; settings: Table 7; for EC50: W88S; for Fold-resistance: W88S relative to wild type virus
Protocol: as §1, §2, §3, §4, §5

[5] = test system: HIV-1LAI E89G; assay: p24 reduction assay in MT-2 cells, E89G; settings: Table 7; for EC50: E89G; for Fold-resistance: E89G relative to wild type virus
Protocol: as §1, §2, §3, §4, §5

[6] = test system: HIV-1LAI E89K; assay: p24 reduction assay in MT-2 cells, E89K; settings: Table 7; for EC50: E89K; for Fold-resistance: E89K relative to wild type virus
Protocol: as §1, §2, §3, §4, §5

[7] = test system: HIV-1LAI Q161L; assay: p24 reduction assay in MT-2 cells, Q161L; settings: Table 7; for EC50: Q161L; for Fold-resistance: Q161L relative to wild type virus
Protocol: as §1, §2, §3, §4, §5

[8] = test system: HIV-1LAI 4XAZT/W88S; assay: p24 reduction assay in MT-2 cells, 4XAZT/W88S; settings: Table 7; for EC50: 4XAZT/W88S; for Fold-resistance: 4XAZT/W88S relative to wild type virus
Protocol: as §1, §2, §3, §4, §5

[9] = test system: HIV-1LAI 4XAZT/E89K; assay: p24 reduction assay in MT-2 cells, 4XAZT/E89K; settings: Table 7; for EC50: 4XAZTE89K; for Fold-resistance: 4XAZTE89K relative to wild type virus
Protocol: as §1, §2, §3, §4, §5

[10] = test system: HIV-1LAI 4XAZT/Q161L; assay: p24 reduction assay in MT-2 cells, 4XAZT/Q161L; settings: Table 7; for EC50: 4XAZTQ161L; for Fold-resistance: 4XAZTQ161L relative to wild type virus
Protocol: as §1, §2, §3, §4, §5

[11] = Table 7, 4XAZTW88G, read-out: EC50
[12] = Human immunodeficiency virus 1, MT2

| SMILES | EC50 ([2]; Table 1, MOI 0.01) [µM] | Fold-resistance ([2]; Table 3) | EC50 ([2]; Table 3, mean ± SD) [µM] | EC50 ([3]; Table 2, MOI 0.05) [µM] | EC50 [4] [µM] | Fold-resistance [4] | EC50 [5] [µM] | Fold-resistance [5] | EC50 [6] [µM] | Fold-resistance [6] | EC50 [7] [µM] | Fold-resistance [7] | EC50 [1, 11] [µM] | EC50 [8] [µM] | Fold-resistance [8] | EC50 [9] [µM] | Fold-resistance [9] | EC50 [10] [µM] | Fold-resistance [10] | also measured |
| --- | --- | --- | --- | --- | --- | --- | --- | --- | --- | --- | --- | --- | --- | --- | --- | --- | --- | --- | --- | --- |
| Cc1cn([C@H]2C[C@H](N=[N+]=[N-])[C@@H](CO)O2)c(=O)[nH]c1=O [AZT, 3′-Azido-3′-deoxythymidine] | – | – | – | – | – | – | – | – | – | – | – | – | – | – | – | – | – | – | – | EC50 ([1]; Human immunodeficiency virus 1, MT2, Table 8, W88G/4XAZT, read-out: AZT EC50): 0.06 ± 0.018 µM; Fold resistance ([1]; Table 8, W88G/4XAZT relative to wild type virus): 1.5 |
| CCCCCCCCCCCCCCCCCCOC[C@@H](O)COP(=O)(O)C(=O)O [B-PFA, 1-O-octadecyl-sn-glycero-3-PFA] | 2.29 | (0.7) | 1.93 ± 0.54 | 3.48 | 20.7 | 1.20 (11.9) | > 30 | (>17.2) | > 30 | (>17.2) | > 30 | (>17.2) | 16.4 | 4.09 | 1.84 (1.6) | 17.4 | 14.9 (6.6) | 6.64 | 2.10 (2.5) | – |
| CCCCCCCCCCCCCCCCCCOC[C@H](COP(=O)(O)C(=O)O)OCC [EB-PFA, 1-O-octadecyl-2-O-ethyl-sn-glycero-3-PFA] | 0.58 | (0.7) | 1.36 ± 0.93 | 1.23 | 2.39 | 0.15 (2.7) | > 26.1 | (>29.0) | 5.21 | – | 6.73 | 0.04 (7.5) | 3.31 | 1.51 | 0.21 (1.9) | 4.39 | 4.59 (5.6) | 1.18 | – | – |
| CCCCCCCCCCCCCCCCCCOC[C@H](COP(=O)(O)C(=O)O)OC [MB-PFA, 1-O-octadecyl-2-O-methyl-sn-glycero-3-PFA] | 0.48 | (1.7) | 1.51 ± 0.45 | – | 2.49 | 0.12 (3.2) | > 30 | (>39.0) | 7.21 | 0.12 (9.4) | 8.78 | 1.58 (11.4) | 2.46 | 1.54 | 0.81 (1.8) | 9.28 | 9.20 (11.1) | 1.87 | 0.33 (2.2) | – |
| O=C(O)P(=O)(O)O [PFA, phosphonoformate, reference compound] | – | (1.7) | – | – | – | – | – | – | – | 46.24 (6.9) | – | 14.14 (8.8) | – | – | 10.40 (1.0) | – | – | – | 9.40 (2.3) | EC50 ([2]; Human immunodeficiency virus 1, MT2, Table 1, MOI 0.01): 15.7 µM; EC50 ([2]; Human immunodeficiency virus 1, MT2, Table 3, mean ± SD): 33.4 ± 18.7 µM; EC50 ([3]; Human immunodeficiency virus 1, MT2, Table 2, MOI 0.05): 24.4 µM; EC50 [4, 12]: 67.1 µM; EC50 [5, 12]: 241 µM; EC50 [6, 12]: 90.2 µM; EC50 [7, 12]: 115 µM; EC50 ([1]; Human immunodeficiency virus 1, MT2, Table 7, 4XAZTW88G, read-out: EC50): 86.2 µM; EC50 [8, 12]: 18.4 µM; EC50 [9, 12]: 134 µM; EC50 [10, 12]: 39.9 µM |
